# Measurements published in BindingDB's records for doi:10.1021/jm070849r (Pfizer, 2008).
# Biological target: T1, 3-hydroxy-3-methylglutaryl-coenzyme A reductase (Rattus norvegicus, UniProt P51639)
# T1 sequence (P51639 whole entry): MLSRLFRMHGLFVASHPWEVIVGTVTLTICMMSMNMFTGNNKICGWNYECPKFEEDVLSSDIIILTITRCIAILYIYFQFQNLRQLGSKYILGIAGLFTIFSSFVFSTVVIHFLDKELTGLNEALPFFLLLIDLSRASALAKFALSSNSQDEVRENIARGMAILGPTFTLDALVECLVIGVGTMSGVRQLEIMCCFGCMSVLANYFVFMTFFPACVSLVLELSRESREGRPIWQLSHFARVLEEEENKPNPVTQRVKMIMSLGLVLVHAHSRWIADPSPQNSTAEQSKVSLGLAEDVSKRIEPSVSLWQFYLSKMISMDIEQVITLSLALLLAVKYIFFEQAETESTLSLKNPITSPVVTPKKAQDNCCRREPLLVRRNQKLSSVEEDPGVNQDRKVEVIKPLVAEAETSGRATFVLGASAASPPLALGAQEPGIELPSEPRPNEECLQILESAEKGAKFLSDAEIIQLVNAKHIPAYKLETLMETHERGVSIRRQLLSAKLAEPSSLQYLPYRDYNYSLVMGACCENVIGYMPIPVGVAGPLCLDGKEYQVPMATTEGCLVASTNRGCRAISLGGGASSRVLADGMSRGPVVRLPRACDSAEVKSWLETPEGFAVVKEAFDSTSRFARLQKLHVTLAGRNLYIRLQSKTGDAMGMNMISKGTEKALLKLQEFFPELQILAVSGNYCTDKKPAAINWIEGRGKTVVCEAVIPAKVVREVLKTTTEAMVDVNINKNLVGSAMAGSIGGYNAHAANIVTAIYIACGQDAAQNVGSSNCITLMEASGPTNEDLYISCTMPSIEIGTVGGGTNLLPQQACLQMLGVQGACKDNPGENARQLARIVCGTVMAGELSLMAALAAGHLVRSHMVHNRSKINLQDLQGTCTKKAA
# Assay: HMG-CoA Reductase Enzyme Assay and Inhibition of Cellular Cholesterol Synthesis Assay
# Settings: pH 7.2; 37 °C
# Procedure: Enzyme Assay for HMG-CoA reductase was based on the conversion of isotopically labeled HMG-CoA to mevalonic acid using rat liver microsomes as enzyme source. The product, [14C]-mevalonic acid was lactonized and separated from excess substrate via an anion ion exchange resin column, and radioactivity was counted on a scintillation counter. The IC50 values were calculated with GraphPad software (Prism). The cellular assay EC50/IC50 values were obtained from inhibition of cholesterol synthesis in rat hepatocyte.
row,IC50 [nM],Compound
1,0.3,CC(C)c1nc(N(C)S(C)(=O)=O)nc(-c2ccc(F)cc2)c1/C=C/[C@@H](O)C[C@@H](O)CC(=O)O
2,0.3,"CC(C)c1c(C(=O)NCc2ccccc2)nn(-c2ccc(F)cc2)c1CC[C@@H](O)C[C@@H](O)CC(=O)O [(3R,5R)-7-[3-(benzylcarbamoyl)-1-(4-fluorophenyl)-4-(propan-2-yl)-1H-pyrazol-5-yl]-3,5-dihydroxyheptanoic acid]"
3,17,"CC[C@H](C)C(=O)O[C@H]1C[C@H](O)C=C2C=C[C@H](C)[C@H](CC[C@@H](O)C[C@@H](O)CC(=O)O)[C@H]21 [(3R,5R)-7-[(1S,2S,6S,8S,8aR)-6-hydroxy-2-methyl-8-{[(2S)-2-methylbutanoyl]oxy}-1,2,6,7,8,8a-hexahydronaphthalen-1-yl]-3,5-dihydroxyheptanoic acid]"
4,1.7,"COCc1c(C(C)C)nc(C(C)C)c(/C=C/[C@@H](O)C[C@@H](O)CC(=O)O)c1-c1ccc(F)cc1 [(3R,5S,6E)-7-[4-(4-fluorophenyl)-5-(methoxymethyl)-2,6-bis(propan-2-yl)pyridin-3-yl]-3,5-dihydroxyhept-6-enoic acid]"
5,0.9,"Cc1ccc(CNC(=O)c2nn(-c3ccc(F)cc3)c(CC[C@@H](O)C[C@@H](O)CC(=O)O)c2C(C)C)cc1 [pyrazole-based inhibitor, 35]"
6,0.6,"CC(C)c1c(C(=O)N(C)Cc2cccc(F)c2F)nn(-c2ccc(F)cc2)c1CC[C@@H](O)C[C@@H](O)CC(=O)O [sodium (3R,5R)-7-(3-{[(2,3-difluorophenyl)methyl](methyl)carbamoyl}-1-(4-fluorophenyl)-4-(propan-2-yl)-1H-pyrazol-5-yl)-3,5-dihydroxyheptanoate]"
7,2.1,"CC(C)c1c(C(=O)N(C)Cc2ccc(F)cc2F)nn(-c2ccc(F)cc2)c1CC[C@@H](O)C[C@@H](O)CC(=O)O [sodium (3R,5R)-7-(3-{[(2,4-difluorophenyl)methyl](methyl)carbamoyl}-1-(4-fluorophenyl)-4-(propan-2-yl)-1H-pyrazol-5-yl)-3,5-dihydroxyheptanoate]"
8,1.4,"CC(C)c1c(C(=O)NCc2cccc(C#N)c2)nn(-c2ccc(F)cc2)c1CC[C@@H](O)C[C@@H](O)CC(=O)O [sodium (3R,5R)-7-(3-{[(3-cyanophenyl)methyl]carbamoyl}-1-(4-fluorophenyl)-4-(propan-2-yl)-1H-pyrazol-5-yl)-3,5-dihydroxyheptanoate]"
9,0.7,"COCc1cccc(CNC(=O)c2nn(-c3ccc(F)cc3)c(CC[C@@H](O)C[C@@H](O)CC(=O)O)c2C(C)C)c1 [sodium (3R,5R)-7-[1-(4-fluorophenyl)-3-({[3-(methoxymethyl)phenyl]methyl}carbamoyl)-4-(propan-2-yl)-1H-pyrazol-5-yl]-3,5-dihydroxyheptanoate]"
10,1.1,"CC(C)c1c(C(=O)N2CCCCC2c2ccccc2)nn(-c2ccc(F)cc2)c1CC[C@@H](O)C[C@@H](O)CC(=O)O (stereo partly drawn) [sodium (3R,5R)-7-[1-(4-fluorophenyl)-3-[(2-phenylpiperidin-1-yl)carbonyl]-4-(propan-2-yl)-1H-pyrazol-5-yl]-3,5-dihydroxyheptanoate]"
11,4,"CC(C)c1c(C(=O)N2CCCC2c2ccccc2)nn(-c2ccc(F)cc2)c1CC[C@@H](O)C[C@@H](O)CC(=O)O (stereo partly drawn) [sodium (3R,5R)-7-[1-(4-fluorophenyl)-3-[(2-phenylpyrrolidin-1-yl)carbonyl]-4-(propan-2-yl)-1H-pyrazol-5-yl]-3,5-dihydroxyheptanoate]"
12,0.4,"CC(C)c1c(C(=O)N2CCCC(c3ccccc3)C2)nn(-c2ccc(F)cc2)c1CC[C@@H](O)C[C@@H](O)CC(=O)O (stereo partly drawn) [sodium (3R,5R)-7-[1-(4-fluorophenyl)-3-[(3-phenylpiperidin-1-yl)carbonyl]-4-(propan-2-yl)-1H-pyrazol-5-yl]-3,5-dihydroxyheptanoate]"
13,0.5,"CC(C)c1c(C(=O)N(C)Cc2ccccc2F)nn(-c2ccc(F)cc2)c1CC[C@@H](O)C[C@@H](O)CC(=O)O [sodium (3R,5R)-7-[1-(4-fluorophenyl)-3-{[(2-fluorophenyl)methyl](methyl)carbamoyl}-4-(propan-2-yl)-1H-pyrazol-5-yl]-3,5-dihydroxyheptanoate]"
14,0.2,"CC(C)c1c(C(=O)N(C)Cc2cccc(F)c2)nn(-c2ccc(F)cc2)c1CC[C@@H](O)C[C@@H](O)CC(=O)O [sodium (3R,5R)-7-[1-(4-fluorophenyl)-3-{[(3-fluorophenyl)methyl](methyl)carbamoyl}-4-(propan-2-yl)-1H-pyrazol-5-yl]-3,5-dihydroxyheptanoate]"
15,0.3,"CC(C)c1c(C(=O)N2CCC[C@H](c3ccccc3)C2)nn(-c2ccc(F)cc2)c1CC[C@@H](O)C[C@@H](O)CC(=O)O [sodium (3R,5R)-7-[1-(4-fluorophenyl)-3-{[(3R)-3-phenylpiperidin-1-yl]carbonyl}-4-(propan-2-yl)-1H-pyrazol-5-yl]-3,5-dihydroxyheptanoate]"
16,0.5,"CC(C)c1c(C(=O)N(C)Cc2ccc(F)cc2)nn(-c2ccc(F)cc2)c1CC[C@@H](O)C[C@@H](O)CC(=O)O [sodium (3R,5R)-7-[1-(4-fluorophenyl)-3-{[(4-fluorophenyl)methyl](methyl)carbamoyl}-4-(propan-2-yl)-1H-pyrazol-5-yl]-3,5-dihydroxyheptanoate]"
17,0.7,"CC(C)c1c(C(=O)NCc2ccc(F)cc2)nn(-c2ccc(F)cc2)c1CC[C@@H](O)C[C@@H](O)CC(=O)O [sodium (3R,5R)-7-[1-(4-fluorophenyl)-3-{[(4-fluorophenyl)methyl]carbamoyl}-4-(propan-2-yl)-1H-pyrazol-5-yl]-3,5-dihydroxyheptanoate]"
18,0.3,"COc1ccc(CN(C)C(=O)c2nn(-c3ccc(F)cc3)c(CC[C@@H](O)C[C@@H](O)CC(=O)O)c2C(C)C)cc1 [sodium (3R,5R)-7-[1-(4-fluorophenyl)-3-{[(4-methoxyphenyl)methyl](methyl)carbamoyl}-4-(propan-2-yl)-1H-pyrazol-5-yl]-3,5-dihydroxyheptanoate]"
19,0.4,"COc1ccc(CNC(=O)c2nn(-c3ccc(F)cc3)c(CC[C@@H](O)C[C@@H](O)CC(=O)O)c2C(C)C)cc1 [sodium (3R,5R)-7-[1-(4-fluorophenyl)-3-{[(4-methoxyphenyl)methyl]carbamoyl}-4-(propan-2-yl)-1H-pyrazol-5-yl]-3,5-dihydroxyheptanoate]"
20,2.1,"Cc1ccccc1CN(C)C(=O)c1nn(-c2ccc(F)cc2)c(CC[C@@H](O)C[C@@H](O)CC(=O)O)c1C(C)C [sodium (3R,5R)-7-[1-(4-fluorophenyl)-3-{methyl[(2-methylphenyl)methyl]carbamoyl}-4-(propan-2-yl)-1H-pyrazol-5-yl]-3,5-dihydroxyheptanoate]"
21,0.6,"Cc1cccc(CN(C)C(=O)c2nn(-c3ccc(F)cc3)c(CC[C@@H](O)C[C@@H](O)CC(=O)O)c2C(C)C)c1 [sodium (3R,5R)-7-[1-(4-fluorophenyl)-3-{methyl[(3-methylphenyl)methyl]carbamoyl}-4-(propan-2-yl)-1H-pyrazol-5-yl]-3,5-dihydroxyheptanoate]"
22,1.8,"Cc1ccc(CN(C)C(=O)c2nn(-c3ccc(F)cc3)c(CC[C@@H](O)C[C@@H](O)CC(=O)O)c2C(C)C)cc1 [sodium (3R,5R)-7-[1-(4-fluorophenyl)-3-{methyl[(4-methylphenyl)methyl]carbamoyl}-4-(propan-2-yl)-1H-pyrazol-5-yl]-3,5-dihydroxyheptanoate]"
23,23,"CC(C)c1c(C(=O)NCc2ccc(C(=O)N(C)C)cc2)nn(-c2ccc(F)cc2)c1CC[C@@H](O)C[C@@H](O)CC(=O)O [sodium (3R,5R)-7-[3-({[4-(dimethylcarbamoyl)phenyl]methyl}carbamoyl)-1-(4-fluorophenyl)-4-(propan-2-yl)-1H-pyrazol-5-yl]-3,5-dihydroxyheptanoate]"
24,5.5,"CCN(Cc1ccccc1)C(=O)c1nn(-c2ccc(F)cc2)c(CC[C@@H](O)C[C@@H](O)CC(=O)O)c1C(C)C [sodium (3R,5R)-7-{3-[benzyl(ethyl)carbamoyl]-1-(4-fluorophenyl)-4-(propan-2-yl)-1H-pyrazol-5-yl}-3,5-dihydroxyheptanoate]"
25,0.2,"CC(C)c1c(C(=O)N(C)Cc2ccccc2)nn(-c2ccc(F)cc2)c1CC[C@@H](O)C[C@@H](O)CC(=O)O [sodium (3R,5R)-7-{3-[benzyl(methyl)carbamoyl]-1-(4-fluorophenyl)-4-(propan-2-yl)-1H-pyrazol-5-yl}-3,5-dihydroxyheptanoate]"
26,10,"CC(C)c1c(C(=O)N(Cc2ccccc2)C(C)C)nn(-c2ccc(F)cc2)c1CC[C@@H](O)C[C@@H](O)CC(=O)O [sodium (3R,5R)-7-{3-[benzyl(propan-2-yl)carbamoyl]-1-(4-fluorophenyl)-4-(propan-2-yl)-1H-pyrazol-5-yl}-3,5-dihydroxyheptanoate]"

# Same assay, conditions: pH 7.2; 37 °C; read-out: IC50
row,IC50 [nM],Compound
1,16,"Cc1ccccc1CN(C)C(=O)c1nn(-c2ccc(F)cc2)c(CC[C@@H](O)C[C@@H](O)CC(=O)O)c1C(C)C [sodium (3R,5R)-7-[1-(4-fluorophenyl)-3-{methyl[(2-methylphenyl)methyl]carbamoyl}-4-(propan-2-yl)-1H-pyrazol-5-yl]-3,5-dihydroxyheptanoate]"
